Test results published in patent US20090099158A1, “TETRAHYDROISOQUINOLINE COMPOUNDS AS MODULATORS OF THE HISTAMINE H3 RECEPTOR” (priority 2007, published 2009).

molecular target: T1, cloned human H3 receptors (Homo sapiens, UniProt Q9Y5N1); assay: H3 Receptor Binding (Human); settings: cloned human H3 receptors stably expressed in SK-N-MC cells; average of the results obtained
T1 construct: expressed in transfected cells; host or cells: SK-N-MC cells
Protocol: Binding of compounds to the cloned human H3 receptors, stably expressed in SK-N-MC cells, was performed as described by Barbier, A. J. et al. (Br. J. Pharmacol. 2004, 143(5), 649-661). Data for compounds tested in this assay are presented in Table 1 as an average of the results obtained.

T1 sequence (Q9Y5N1 whole entry): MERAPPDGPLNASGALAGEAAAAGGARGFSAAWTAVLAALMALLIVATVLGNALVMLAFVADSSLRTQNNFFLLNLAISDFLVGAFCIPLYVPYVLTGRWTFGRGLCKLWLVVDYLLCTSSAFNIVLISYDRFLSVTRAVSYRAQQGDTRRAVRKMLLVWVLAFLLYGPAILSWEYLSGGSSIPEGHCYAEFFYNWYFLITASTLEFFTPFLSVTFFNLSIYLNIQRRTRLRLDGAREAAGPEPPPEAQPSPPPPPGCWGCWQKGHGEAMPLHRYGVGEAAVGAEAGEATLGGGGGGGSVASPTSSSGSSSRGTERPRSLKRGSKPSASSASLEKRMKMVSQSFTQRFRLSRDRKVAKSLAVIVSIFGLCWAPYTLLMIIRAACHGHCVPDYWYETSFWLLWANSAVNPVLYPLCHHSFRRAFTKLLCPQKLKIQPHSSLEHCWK

How did the Ki turn out when `O=C(c1ccc2c(c1)CCN(C(=O)c1ccc(F)c(Cl)c1)C2)N1CCCN(C2CCC2)CC1` [Example 145, (3-Chloro-4-fluoro-phenyl)-[6-(4-cyclobutyl-[1,4]diazepane-1-carbonyl)-3,4-dihydro-1H-isoquinolin-2-yl]-methanone] was run?
The Ki was 1 nM.

With `O=C(c1ccc2c(c1)CCN(C(=O)C1CCC1)C2)N1CCN(C2CCC2)CC1` [Example 31, Cyclobutyl-[6-(4-cyclobutyl-piperazine-1-carbonyl)-3,4-dihydro-1H-isoquinolin-2-yl]-methanone] as the molecule, how does the Ki read?
The Ki was 87 nM.

How did the Ki turn out when `O=C(c1ccc2c(c1)CCN(C(=O)c1ccsc1)C2)N1CCN(C2CCC2)CC1` [Example 115, (4-Cyclobutyl-piperazin-1-yl)-[2-(thiophene-3-carbonyl)-1,2,3,4-tetrahydro-isoquinolin-6-yl]-methanone] was run?
The Ki was 11 nM.

How did the Ki turn out when `O=C(C1CCCCC1)N1CCc2cc(CN3CCCCC3)ccc2C1` [Example 166, Cyclohexyl-(6-piperidin-1-ylmethyl-3,4-dihydro-1H-isoquinolin-2-yl)-methanone] was run?
Its Ki is 45 nM.

For `O=C(c1ccc2c(c1)CCN(S(=O)(=O)c1ccccc1)C2)N1CCN(C2CCC2)CC1` [Example 103, (2-Benzenesulfonyl-1,2,3,4-tetrahydro-isoquinolin-6-yl)-(4-cyclobutyl-piperazin-1-yl)-methanone], which Ki is on record?
Its Ki is 22 nM.

With `O=C(c1cccc(Cl)c1)N1CCc2cc(C(=O)N3CCN4CCCCC4C3)ccc2C1` (stereo not shown) [Example 90, [2-(3-Chloro-benzoyl)-1,2,3,4-tetrahydro-isoquinolin-6-yl]-(octahydro-pyrido[1,2-a]pyrazin-2-yl)-methanone] as the molecule, how does the Ki read?
Its Ki is 19 nM.

With `Cc1ccc(C(=O)N2CCc3cc(C(=O)N4CCC[C@H]4CN4CCCC4)ccc3C2)cc1` [Example 55, (S)-[6-(2-Pyrrolidin-1-ylmethyl-pyrrolidine-1-carbonyl)-3,4-dihydro-1H-isoquinolin-2-yl]-p-tolyl-methanone] as the molecule, how does the Ki read?
The Ki was 22 nM.

Which Ki does the source give for `CC(C)N1CCc2cc(C(=O)N3CCC(C(C)(C)C)CC3)ccc2C1` [Example 176, (4-tert-Butyl-piperidin-1-yl)-(2-isopropyl-1,2,3,4-tetrahydro-isoquinolin-6-yl)-methanone] here?
The Ki was 250 nM.

For `CC(C)(C)C(=O)N1CCc2cc(C(=O)N3CCN(C4CCC4)CC3)ccc2C1` [Example 41, 1-[6-(4-Cyclobutyl-piperazine-1-carbonyl)-3,4-dihydro-1H-isoquinolin-2-yl]-2,2-dimethyl-propan-1-one], which Ki is on record?
Its Ki is 15 nM.

Which Ki does the source give for `O=C(c1ccc2c(c1)CCN(C1CCC1)C2)N1CCCCC1` [Example 185, (2-Cyclobutyl-1,2,3,4-tetrahydro-isoquinolin-6-yl)-piperidin-1-yl-methanone] here?
The Ki was 2100 nM.

`O=C(Cc1ccc(F)cc1)N1CCc2cc(C(=O)N3CCN(C4CCC4)CC3)ccc2C1` [Example 130, 1-[6-(4-Cyclobutyl-piperazine-1-carbonyl)-3,4-dihydro-1H-isoquinolin-2-yl]-2-(4-fluoro-phenyl)-ethanone] was tested. Which Ki did it give?
The Ki was 10 nM.

`O=C(c1ccc2c(c1)CCN(C(=O)c1ccc(F)cc1)C2)N1CCN(C2CCCC2)CC1` [Example 67, (4-Cyclopentyl-piperazin-1-yl)-[2-(4-fluoro-benzoyl)-1,2,3,4-tetrahydro-isoquinolin-6-yl]-methanone] was tested. Which Ki did it give?
The Ki was 53 nM.

Which Ki does the source give for `CCCN1CCc2cc(C(=O)N3CCCN(C4CCC4)CC3)ccc2C1` [Example 183, (4-Cyclobutyl-[1,4]diazepan-1-yl)-(2-propyl-1,2,3,4-tetrahydro-isoquinolin-6-yl)-methanone] here?
The Ki was 1 nM.

With `O=C(c1ccc(Cl)cc1)N1CCc2cc(C(=O)N3CCN4CCCCC4C3)ccc2C1` (stereo not shown) [Example 91, [2-(4-Chloro-benzoyl)-1,2,3,4-tetrahydro-isoquinolin-6-yl]-(octahydro-pyrido[1,2-a]pyrazin-2-yl)-methanone] as the molecule, how does the Ki read?
The Ki was 25 nM.

`CCCN1CCc2cc(C(=O)N3CCC(C(C)(C)O)CC3)ccc2C1` [Example 184, [4-(1-Hydroxy-1-methyl-ethyl)-piperidin-1-yl]-(2-Propyl-1,2,3,4-tetrahydro-isoquinolin-6-yl)-methanone] was tested. Which Ki did it give?
The Ki was 4200 nM.

For `O=C(c1ccc2c(c1)CCN(Cc1ccc(Cl)cc1)C2)N1CCN(C2CCC2)CC1` [Example 17, [2-(4-Chloro-benzyl)-1,2,3,4-tetrahydro-isoquinolin-6-yl]-(4-cyclobutyl-piperazin-1-yl)-methanone], which Ki is on record?
Its Ki is 15 nM.

Which Ki does the source give for `O=C(c1ccc2c(c1)CCN(C1CCCC1)C2)N1CCOCC1` [Example 172, (2-Cyclopentyl-1,2,3,4-tetrahydro-isoquinolin-6-yl)-morpholin-4-yl-methanone] here?
Its Ki is 2800 nM.

Which Ki does the source give for `O=C(c1ccc2c(c1)CCN(C(=O)c1ccccc1)C2)N1CCN(C2CCCC2)CC1` [Example 65, (2-Benzoyl-1,2,3,4-tetrahydro-isoquinolin-6-yl)-(4-cyclopentyl-piperazin-1-yl)-methanone] here?
Its Ki is 100 nM.

For `CCCN1CCc2cc(C(=O)N3CCC(C(C)(C)C)CC3)ccc2C1` [Example 182, (4-tert-Butyl-piperidin-1-yl)-(2-propyl-1,2,3,4-tetrahydro-isoquinolin-6-yl)-methanone], which Ki is on record?
The Ki was 340 nM.

With `CC(=O)N1CCc2cc(C(=O)N3CCN(C(C)C)CC3)ccc2C1` [Example 29, 1-[6-(4-Isopropyl-piperazine-1-carbonyl)-3,4-dihydro-1H-isoquinolin-2-yl]-ethanone] as the molecule, how does the Ki read?
The Ki was 80 nM.

With `Cc1ccc(C(=O)N2CCc3cc(C(=O)N4CCN(C5CCCCC5)CC4)ccc3C2)cc1` [Example 83, (4-Cyclohexyl-piperazin-1-yl)-[2-(4-methyl-benzoyl)-1,2,3,4-tetrahydro-isoquinolin-6-yl]-methanone] as the molecule, how does the Ki read?
Its Ki is 257 nM.

Which Ki does the source give for `CN(C)c1ccc(C(=O)N2CCc3cc(C(=O)N4CCN(C5CCC5)CC4)ccc3C2)cc1` [Example 117, [6-(4-Cyclobutyl-piperazine-1-carbonyl)-3,4-dihydro-1H-isoquinolin-2-yl]-(4-dimethylamino-phenyl)-methanone] here?
Its Ki is 13 nM.

`O=C(Cc1ccc(F)cc1)N1CCc2cc(C(=O)N3CCN(C4CCCC4)CC3)ccc2C1` [Example 71, 1-[6-(4-Cyclopentyl-piperazine-1-carbonyl)-3,4-dihydro-1H-isoquinolin-2-yl]-2-(4-fluoro-phenyl)-ethanone] was tested. Which Ki did it give?
The Ki was 48 nM.

Which Ki does the source give for `O=C(c1ccc2c(c1)CCN(C(=O)c1ccoc1)C2)N1CCN(C2CCC2)CC1` [Example 44, [6-(4-Cyclobutyl-piperazine-1-carbonyl)-3,4-dihydro-1H-isoquinolin-2-yl]-furan-3-yl-methanone] here?
Its Ki is 19 nM.

`COc1ccc(CC(=O)N2CCc3cc(C(=O)N4CCC[C@H]4CN4CCCC4)ccc3C2)cc1` [Example 61] was tested. Which Ki did it give?
The Ki was 7 nM.

Which Ki does the source give for `CCCS(=O)(=O)N1CCc2cc(C(=O)N3CCN(C4CCC4)CC3)ccc2C1` [Example 101, (4-Cyclobutyl-piperazin-1-yl)-[2-(propane-1-sulfonyl)-1,2,3,4-tetrahydro-isoquinolin-6-yl]-methanone] here?
The Ki was 34 nM.

Which Ki does the source give for `CC(C)(C)C1CCN(C(=O)c2ccc3c(c2)CCN(C2CCC2)C3)CC1` [Example 188, (4-tert-Butyl-piperidin-1-yl)-(2-cyclobutyl-1,2,3,4-tetrahydro-isoquinolin-6-yl)-methanone] here?
The Ki was 340 nM.

`O=C(c1ccc2c(c1)CCN(C(=O)c1ccc(F)cc1)C2)N1CCCN(C2CCC2)CC1` [Example 134, [6-(4-Cyclobutyl-[1,4]diazepane-1-carbonyl)-3,4-dihydro-1H-isoquinolin-2-yl]-(4-fluoro-phenyl)-methanone] was tested. Which Ki did it give?
The Ki was 1 nM.

With `Cc1ccc(C(=O)N2CCc3cc(C(=O)N4CCN(C5CCCC5)CC4)ccc3C2)cc1` [Example 70, (4-Cyclopentyl-piperazin-1-yl)-[2-(4-methyl-benzoyl)-1,2,3,4-tetrahydro-isoquinolin-6-yl]-methanone] as the molecule, how does the Ki read?
Its Ki is 65 nM.

`O=C(c1ccc2c(c1)CCN(C(=O)c1ccc(F)c(O)c1)C2)N1CCN(C2CCC2)CC1` [Example 124, (4-Cyclobutyl-piperazin-1-yl)-[2-(4-fluoro-3-hydroxy-benzoyl)-1,2,34-tetrahydro-isoquinolin-6-yl]-methanone] was tested. Which Ki did it give?
The Ki was 24 nM.

With `CC(C)(C)C(=O)N1CCc2cc(C(=O)N3CCC[C@H]3CN3CCCC3)ccc2C1` [Example 47, (S)-2,2-Dimethyl-1-[6-(2-pyrrolidin-1-ylmethyl-pyrrolidine-1-carbonyl)-3,4-dihydro-1H-isoquinolin-2-yl]-propan-1-one] as the molecule, how does the Ki read?
The Ki was 16 nM.

How did the Ki turn out when `COc1cccc(C(=O)N2CCc3cc(C(=O)N4CCC[C@H]4CN4CCCC4)ccc3C2)c1` [Example 59, (S)-(3-Methoxy-phenyl)-[6-(2-Pyrrolidin-1-ylmethyl-pyrrolidine-1-carbonyl)-3,4-dihydro-1H-isoquinolin-2-yl]-methanone] was run?
The Ki was 12 nM.

With `CC(C)(C)c1ccc(C(=O)N2CCc3cc(C(=O)N4CCN(C5CCCCC5)CC4)ccc3C2)cc1` [Example 84, [2-(4-tert-Butyl-benzoyl)-1,2,3,4-tetrahydro-isoquinolin-6-yl]-(4-cyclohexyl-piperazin-1-yl)-methanone] as the molecule, how does the Ki read?
Its Ki is 180 nM.

Which Ki does the source give for `CN(C)c1cccc(C(=O)N2CCc3cc(C(=O)N4CCN(C5CCC5)CC4)ccc3C2)c1` [Example 116, [6-(4-Cyclobutyl-piperazine-1-carbonyl)-3,4-dihydro-1H-isoquinolin-2-yl]-(3-dimethylamino-phenyl)-methanone] here?
The Ki was 18 nM.

Which Ki does the source give for `O=C(c1ccc2c(c1)CCN(C(=O)c1ccc(F)cc1)C2)N1CCN(C2CCCCC2)CC1` [Example 74, (4-Cyclohexyl-piperazin-1-yl)-[2-(4-fluoro-benzoyl)-1,2,3,4-tetrahydro-isoquinolin-6-yl]-methanone] here?
The Ki was 109 nM.

Which Ki does the source give for `O=C(c1ccccc1)N1CCc2cc(C(=O)N3CCC[C@H]3CN3CCCC3)ccc2C1` [Example 48, (S)-Phenyl-[6-(2-pyrrolidin-1-ylmethyl-pyrrolidine-1-carbonyl)-3,4-dihydro-1H-isoquinolin-2-yl]-methanone] here?
The Ki was 18 nM.

How did the Ki turn out when `O=C(c1ccc2c(c1)CCN(C1CCC1)C2)N1CCCN(C2CCC2)CC1` [Example 189, (4-Cyclobutyl-[1,4]diazepan-1-yl)-(2-cyclobutyl-1,2,3,4-tetrahydro-isoquinolin-6-yl)-methanone] was run?
Its Ki is 1 nM.
